Results: patent publication US20060151574A1, “Formulations useful against hepatitis C virus infections” (priority 2002, published 2006)

Assays:
HCV replicon cell lines = assay: HCV replicon cell lines: HCV RNA by Northern Blotting, NS5a by Western Blotting; type: cell-based, Hepatitis C virus
Source text: The only reliable experimental animal HCV infection studies have been performed with chimpanzees. So far, there is no simple cell culture infection system available or HCV. Although a number of reports have been published describing in vitro propagation attempts of HCV in primary cells and cell lines, questions remain concerning reproducibility, low levels of expression and properly controlled detection methods (reviewed in J. Gen Virol. 81, 1631; Antiviral Chemistry and Chemotherapy 10, 99). Thus, the replicon system described by Bartenschlager and coworkers (Lohmann et al, Replication of subgenomic hepatitis C virus RNAs in a hepatoma cell line. Science 285, 110. 1999) was used for the studies disclosed herein. This replicon system reproduces a crucial part of the HCV replication cycle which is used as a system for simulating HCV infection. Bartenschlager's group produced bicistronic recombinant RNAs, so-called “replicons”, which carry the neomycin-phosphotransferase (NPT) gene as well as a version of the HCV genome where the sequences for the structural HCV proteins were deleted. After transfection of the subgenomic HCV RNA molecules into the human hepatoma cell line HuH-7, cells supporting efficient RNA-dependent RNA replication of the HCV replicons were selected based on co-amplification of the NPT gene and resulting resistance to the antibiotic G-418. Integration of coding information into the cellular genome was an exclusion criteria for functional replicons. Several lines were established from G-418 resistant clones with autonomously replicating HCV RNAs detectable by Northern Blotting.
Possible influences and/or dependencies of HCV's RNA-dependent RNA replication and nonstructural proteins on host cell transcription are accessible to analysis with the Clontech cDNA arrays used in the methods described herein. HuH-pcDNA3 cells are HuH7 cells resistant to G-418 by integration of a NPT gene-carrying plasmid (pcDNA3, Invitrogen) and serve as negative control. Three replicon lines were analyzed for changes in cellular RNA expression patterns compared to the control line: • HuH-9-13: cell line with persistant replicon IRES377/NS3-3′/wt, described in Science 1999, 285, 110-113, • HuH-5-15: cell line with persistant replicon IRES389/NS3-3′/wt, described in Science 1999, 285, 110-113, • HuH-11-7: cell line with persistant replicon IRES377/NS2-3′/wt, described in Science 1999, 285, 110-113.
(§1) Moreover, as model system for HCV replication there were utilized three replicon cell lines provided by Prof. R. Bartenschlager (University of Heidelberg, FRG). Cultures were treated for various periods of time with all bans retinoic acid (RA) for comparative purposes and the other agents selenium, selenium salts, Vitamin D3 and retinoids, like 9-cis retinoic acid, C1-C10 alkyl esters of 9-cis retinoic acid, C1-C10 alkyl amides of 9-cis retinoic add, N-(4-hydroxyphenyl)retinamide (4-HPR) and 6-[3-(1-adamantyl)+hydroxyphenyl]-2-naphthalene carboxylic acid (CD437; AHPN) (obtained from Sigma). Levels of expression of GI-GPx was measured on protein level by Western Blotting using antibodies provided by Prof. Brigelius-Flohe (University of Potsdam, FRG) and on RNA level by Northern blotting using GI-GPx-specific oligonucleotides as probes. Levels of HCV RNA were investigated by Northern Blotting using a DNA oligonucleotide complementary to the neomycin phosphotansferase gene as probe. Concentration of the viral protein NS5a was determined by Western Blotting with an NS5a-specific antibody (Biogenesis, UK).

replicon cells = assay: Cytotoxic effects on replicon cells
GI-GPx = GI-GPx expression in replicon cells (Western / Northern blotting); type: cell-based, human
Description: as §1

PKR mRNA = PKR mRNA levels by Northern blotting (interferon response); type: cell-based, human
Source text: In the course of retinoic acid studies it was investigated whether the RA-effect may also be mediated by activating an interferon response. A typical interferon-inducible gene codes for the double-stranded RNA-dependent protein kinase (PKR).

interferon receptors = assay: Expression of interferon receptors in replicon cells by western Blotting; type: cell-based, human
[1] = tested on: nuclear receptors (RAR, RXR); assay: Ability to act as ligands for nuclear receptors; type: binding
RAR = assay: Ligands for nuclear receptors: effector concentration; type: biochemical; details: read-out: EC50 (effector concentration, concentration showing 50% effect)
[2] = 1 μM, seven days, depending on the cell line
[3] = HCV replicon cell lines, FIG. 1 Panel A
[4] = replicon cells, 1 μM, three days
[5] = six days, in the presence of selenium or a selenium salt like sodium selenite

C=C1CC[C@H](O)C/C1=C/C=C1\CCC[C@]2(C)[C@@H]([C@H](C)CCCC(C)C)CC[C@@H]12 [Vitamin D3]
reducing HCV load (HCV replicon cell lines): capable of reducing HCV load

CC1=C(/C=C/C(C)=C/C=C/C(C)=C\C(=O)O)C(C)(C)CCC1 [13-cis RA, 13-cis retinoic acid]
Effect on Replication (HCV replicon cell lines): +++

O=[Se](O)O [sodium selenite]
Severe cytotoxic effects (replicon cells; substance alone): neither observed

CC1=C(/C=C/C(C)=C\C=C\C(C)=C\C(=O)O)C(C)(C)CCC1 [9-cis RA, 9-cis retinoic acid]
Effect on Replication (HCV replicon cell lines): +++
reducing HCV load (HCV replicon cell lines): capable of reducing HCV load
downregulate HCV RNA, compared with all trans retinoic acid alone (HCV replicon cell lines; first preliminary result): significantly better

CC1=C(/C=C/C(C)=C/C=C/C(C)=C/C(=O)O)C(C)(C)CCC1 [ATRA, all trans retinoic acid]
Effect on Replication (HCV replicon cell lines): +++
expression of subgenomic HCV RNA downregulated (HCV replicon cell lines; [2]): two- to five-fold
expression of viral protein NS5a downregulated (HCV replicon cell lines; [2]): two- to five-fold
HCV RNA (HCV replicon cell lines; [3]): suppression
NS5a protein expression (HCV replicon cell lines; [3]): suppression
HCV down-regulation by IFN alpha (HCV replicon cell lines; in the presence of RA, FIG. 2 center Panel): slightly enhanced
effect on HCV expression (HCV replicon cell lines; [4]): hardly an effect
reduction of HCV-NS5a protein (HCV replicon cell lines; [5]): two- to five-fold
reduction of HCV-RNA (HCV replicon cell lines; [5]): two- to five-fold
up-regulation of GI-GPx on RNA- and protein level (GI-GPx; 1 μM, seven days of incubation): three- to ten-fold
GI-GPx gene expression (GI-GPx; HCV replicon cell lines, FIG. 1 Panel B): up-regulation
effect on GI-GPx expression (GI-GPx; [4]): hardly an effect
upregulation of GI-GPx RNA and protein (GI-GPx; replicon cells, six days): upregulation
transcription of PKR (PKR mRNA): did not induce
PKR mRNA levels (PKR mRNA; mock-transfected HuH7 cells (pcDNA3) and replicon cell lines, ATRA 1 μM, IFN as control, FIG. 1 Panel C): no up-regulation
interferon receptors on protein level (interferon receptors): no up-regulation
Receptor(s) [1]: RAR
toxic effects (replicon cells; [5]): absence of toxic effects

CC1(C)CCC(C)(C)c2cc(C(=O)Nc3ccc(C(=O)O)cc3)ccc21 [AM-580, (4-[5,6,7,8-tetrahydro-5,5,8,8-tetramethyl-2-naphtalenyl)carbox-amido]benzoic acid]
Effect on Replication (HCV replicon cell lines): ++
Receptor(s) [1]: RARα/not RXR

COC(C)(C)CCCC(C)C/C=C/C(C)=C/C(=O)O (stereo not drawn) [Methoprene acid, 11-methoxy-3,7,11-trimethyl-2E,4E-dodecadienoic acid]
Effect on Replication (HCV replicon cell lines): −
Receptor(s) [1]: RXR

CC1=C(/C=C/C(C)=C/C=C/C(C)=C/C(=O)Nc2ccc(O)cc2)C(C)(C)CCC1 [4-HPR, N-(4-hydroxyphenyl)retinamide]
Effect on Replication (HCV replicon cell lines): ++
Receptor(s) [1]: RAR

C/C(=C\c1ccc(C(=O)O)cc1)c1ccc2c(c1)C(C)(C)CCC2(C)C [TTNPB]
Effect on Replication (HCV replicon cell lines): +++
Receptor(s) [1]: RAR
